Values joined by “and” are separate entries in the source; they are usually repeats but may differ in a detail not shown here. Identical values can stand only once. Numbers after ± are expanded uncertainties.
Experiment: molar heat capacity at constant pressure
Details: 101.33 kPa

Brc1cc(Br)cc(Br)c1 [1,3,5-tribromobenzene]
molar heat capacity at constant pressure
Details	Crystal	Liquid
6.52 K	1.72 ± 0.06 J/K/mol	–
6.88 K	2.15 ± 0.07 J/K/mol	–
6.95 K	2.19 ± 0.07 J/K/mol	–
7.15 K	2.56 ± 0.07 J/K/mol	–
7.61 K	3.13 ± 0.08 J/K/mol	–
7.91 K	3.91 ± 0.09 J/K/mol	–
8.43 K	4.55 ± 0.1 J/K/mol	–
8.64 K	4.82 ± 0.1 J/K/mol	–
9.26 K	5.6 ± 0.11 J/K/mol	–
9.48 K	6.06 ± 0.12 J/K/mol	–
9.98 K	6.73 ± 0.13 J/K/mol	–
10 K	6.75 ± 0.13 J/K/mol	–
10.55 K	7.4 ± 0.14 J/K/mol	–
10.76 K	7.57 ± 0.14 J/K/mol	–
11.09 K	8.13 ± 0.15 J/K/mol	–
11.43 K	8.59 ± 0.15 J/K/mol	–
12.2 K	9.56 ± 0.16 J/K/mol	–
12.4 K	9.97 ± 0.17 J/K/mol	–
13.02 K	11.12 ± 0.18 J/K/mol	–
13.44 K	11.86 ± 0.19 J/K/mol	–
13.52 K	11.96 ± 0.19 J/K/mol	–
14.28 K	13.92 ± 0.22 J/K/mol	–
14.41 K	14.32 ± 0.22 J/K/mol	–
14.86 K	15.39 ± 0.23 J/K/mol	–
15 K	15.69 ± 0.23 J/K/mol	–
15.24 K	16.16 ± 0.24 J/K/mol	–
15.97 K	17.16 ± 0.25 J/K/mol	–
16.24 K	17.78 ± 0.25 J/K/mol	–
16.42 K	18.22 ± 0.25 J/K/mol	–
16.81 K	18.82 ± 0.26 J/K/mol	–
17.75 K	20.23 ± 0.27 J/K/mol	–
18.13 K	21.04 ± 0.27 J/K/mol and 21.05 ± 0.28 J/K/mol	–
18.35 K	21.29 ± 0.28 J/K/mol	–
18.91 K	22.41 ± 0.28 J/K/mol	–
19.3 K	22.84 ± 0.29 J/K/mol	–
19.96 K	24.11 ± 0.29 J/K/mol	–
20 K	24.16 ± 0.29 J/K/mol	–
20.32 K	24.44 ± 0.29 J/K/mol	–
20.36 K	25.02 ± 0.3 J/K/mol	–
20.69 K	25.21 ± 0.3 J/K/mol	–
20.91 K	25.52 ± 0.3 J/K/mol	–
21.28 K	25.98 ± 0.3 J/K/mol	–
21.33 K	26.05 ± 0.3 J/K/mol	–
22.22 K	27.37 ± 0.3 J/K/mol	–
22.85 K	28.05 ± 0.3 J/K/mol	–
23.13 K	28.66 ± 0.3 J/K/mol	–
23.5 K	29.01 ± 0.3 J/K/mol	–
25 K	30.93 ± 0.3 J/K/mol	–
25.43 K	31.5 ± 0.3 J/K/mol	–
25.52 K	31.63 ± 0.3 J/K/mol	–
25.66 K	31.94 ± 0.3 J/K/mol	–
27.61 K	34.27 ± 0.29 J/K/mol	–
28.08 K	34.74 ± 0.29 J/K/mol	–
29.8 K	36.66 ± 0.27 J/K/mol	–
30 K	36.88 ± 0.23 J/K/mol	–
30.83 K	37.81 ± 0.23 J/K/mol	–
32.02 K	39.23 ± 0.24 J/K/mol	–
33.45 K	40.57 ± 0.24 J/K/mol	–
34.29 K	41.49 ± 0.25 J/K/mol	–
35.86 K	42.74 ± 0.25 J/K/mol	–
36.6 K	43.58 ± 0.26 J/K/mol	–
38.95 K	45.82 ± 0.26 J/K/mol	–
40 K	46.88 ± 0.27 J/K/mol	–
41.31 K	48.18 ± 0.27 J/K/mol	–
43.74 K	50.35 ± 0.28 J/K/mol	–
46.2 K	52.53 ± 0.29 J/K/mol	–
48.69 K	54.78 ± 0.3 J/K/mol	–
50 K	55.72 ± 0.3 J/K/mol	–
51.22 K	56.59 ± 0.31 J/K/mol	–
53.78 K	58.73 ± 0.32 J/K/mol	–
56.38 K	60.57 ± 0.32 J/K/mol	–
59 K	62.4 ± 0.33 J/K/mol	–
60 K	63.1 ± 0.33 J/K/mol	–
61.66 K	64.25 ± 0.34 J/K/mol	–
64.34 K	66.1 ± 0.34 J/K/mol	–
67.06 K	67.97 ± 0.35 J/K/mol	–
69.79 K	69.75 ± 0.36 J/K/mol	–
70 K	69.88 ± 0.36 J/K/mol	–
72.55 K	71.4 ± 0.37 J/K/mol	–
75.33 K	73.12 ± 0.37 J/K/mol	–
78.14 K	74.71 ± 0.38 J/K/mol	–
80 K	75.73 ± 0.38 J/K/mol	–
80.95 K	76.25 ± 0.39 J/K/mol	–
83.79 K	77.97 ± 0.39 J/K/mol	–
84.19 K	78.04 ± 0.39 J/K/mol	–
86.63 K	79.59 ± 0.4 J/K/mol	–
87.47 K	79.75 ± 0.4 J/K/mol	–
89.49 K	81.07 ± 0.4 J/K/mol	–
90 K	81.22 ± 0.56 J/K/mol	–
90.65 K	81.41 ± 0.56 J/K/mol	–
92.36 K	82.26 ± 0.56 J/K/mol	–
93.74 K	82.91 ± 0.57 J/K/mol	–
95.25 K	83.54 ± 0.57 J/K/mol	–
96.75 K	84.24 ± 0.57 J/K/mol	–
98.15 K	85.01 ± 0.57 J/K/mol	–
99.69 K	85.65 ± 0.57 J/K/mol	–
100 K	85.83 ± 0.57 J/K/mol	–
101.04 K	86.47 ± 0.57 J/K/mol	–
102.61 K	87.46 ± 0.58 J/K/mol	–
105.54 K	88.95 ± 0.58 J/K/mol	–
108.48 K	90.22 ± 0.58 J/K/mol	–
110 K	90.89 ± 0.58 J/K/mol	–
111.43 K	91.51 ± 0.58 J/K/mol	–
114.39 K	92.81 ± 0.59 J/K/mol	–
117.36 K	94.15 ± 0.59 J/K/mol	–
120 K	95.33 ± 0.59 J/K/mol	–
120.34 K	95.48 ± 0.59 J/K/mol	–
123.32 K	96.75 ± 0.59 J/K/mol	–
126.31 K	98.04 ± 0.6 J/K/mol	–
129.31 K	99.34 ± 0.6 J/K/mol	–
130 K	99.63 ± 0.6 J/K/mol	–
132.31 K	100.61 ± 0.6 J/K/mol	–
135.32 K	101.87 ± 0.6 J/K/mol	–
138.33 K	103.08 ± 0.61 J/K/mol	–
140 K	103.77 ± 0.61 J/K/mol	–
141.34 K	104.32 ± 0.61 J/K/mol	–
144.36 K	105.54 ± 0.61 J/K/mol	–
147.39 K	106.84 ± 0.61 J/K/mol	–
150 K	107.74 ± 0.62 J/K/mol	–
150.41 K	107.89 ± 0.62 J/K/mol	–
153.44 K	109.1 ± 0.62 J/K/mol	–
156.48 K	110.25 ± 0.62 J/K/mol	–
159.51 K	111.32 ± 0.62 J/K/mol	–
160 K	111.51 ± 0.62 J/K/mol	–
162.55 K	112.49 ± 0.63 J/K/mol	–
165.6 K	113.63 ± 0.63 J/K/mol	–
168.64 K	114.79 ± 0.63 J/K/mol	–
170 K	115.31 ± 0.63 J/K/mol	–
171.69 K	115.96 ± 0.63 J/K/mol	–
174.73 K	117.13 ± 0.63 J/K/mol	–
177.78 K	118.3 ± 0.64 J/K/mol	–
180 K	119.09 ± 0.64 J/K/mol	–
180.84 K	119.39 ± 0.64 J/K/mol	–
183.89 K	120.53 ± 0.64 J/K/mol	–
186.94 K	121.72 ± 0.64 J/K/mol	–
190 K	122.82 ± 0.65 J/K/mol	–
193.05 K	123.91 ± 0.65 J/K/mol	–
196.11 K	125.07 ± 0.65 J/K/mol	–
199.17 K	126.16 ± 0.65 J/K/mol	–
200 K	126.45 ± 0.65 J/K/mol	–
202.22 K	127.16 ± 0.65 J/K/mol	–
205.28 K	128.31 ± 0.66 J/K/mol	–
208.34 K	129.4 ± 0.66 J/K/mol	–
210 K	130.05 ± 0.66 J/K/mol	–
211.4 K	130.6 ± 0.66 J/K/mol	–
214.46 K	131.79 ± 0.66 J/K/mol	–
217.52 K	132.78 ± 0.67 J/K/mol	–
220 K	133.7 ± 0.67 J/K/mol	–
220.58 K	133.9 ± 0.67 J/K/mol	–
223.64 K	135.03 ± 0.67 J/K/mol	–
226.7 K	136.15 ± 0.67 J/K/mol	–
229.77 K	137.26 ± 0.67 J/K/mol	–
230 K	137.34 ± 0.67 J/K/mol	–
232.83 K	138.31 ± 0.68 J/K/mol	–
235.89 K	139.48 ± 0.68 J/K/mol	–
238.95 K	140.62 ± 0.68 J/K/mol	–
240 K	141.01 ± 0.68 J/K/mol	–
242.01 K	141.75 ± 0.68 J/K/mol	–
245.07 K	142.87 ± 0.69 J/K/mol	–
248.12 K	143.98 ± 0.69 J/K/mol	–
250 K	144.67 ± 0.69 J/K/mol	–
251.17 K	145.1 ± 0.69 J/K/mol	–
254.22 K	146.19 ± 0.69 J/K/mol	–
257.27 K	147.31 ± 0.69 J/K/mol	–
260 K	148.3 ± 0.7 J/K/mol	–
260.32 K	148.41 ± 0.7 J/K/mol	–
263.36 K	149.52 ± 0.7 J/K/mol	–
266.41 K	150.63 ± 0.7 J/K/mol	–
269.46 K	151.81 ± 0.7 J/K/mol	–
270 K	152.01 ± 0.7 J/K/mol	–
272.51 K	152.93 ± 0.71 J/K/mol	–
275.56 K	153.96 ± 0.71 J/K/mol	–
278.61 K	155.09 ± 0.71 J/K/mol	–
280 K	155.47 ± 0.71 J/K/mol	–
281.65 K	155.93 ± 0.71 J/K/mol	–
284.69 K	157.08 ± 0.71 J/K/mol	–
287.74 K	158.17 ± 0.72 J/K/mol	–
290 K	158.9 ± 0.72 J/K/mol	–
290.78 K	159.14 ± 0.72 J/K/mol	–
293.81 K	160 ± 0.72 J/K/mol	–
296.86 K	161.12 ± 0.72 J/K/mol	–
298.15 K	161.57 ± 0.72 J/K/mol	–
299.91 K	162.28 ± 0.72 J/K/mol	–
300 K	162.32 ± 0.72 J/K/mol	–
302.95 K	163.09 ± 0.73 J/K/mol	–
306 K	164.04 ± 0.73 J/K/mol	–
306.85 K	164.3 ± 0.73 J/K/mol	–
309.04 K	165.03 ± 0.73 J/K/mol	–
310 K	165.35 ± 0.73 J/K/mol	–
310.25 K	165.42 ± 0.73 J/K/mol	–
312.08 K	166.05 ± 0.73 J/K/mol	–
313.63 K	166.52 ± 0.73 J/K/mol	–
315.12 K	167.1 ± 0.73 J/K/mol	–
317 K	167.67 ± 0.74 J/K/mol	–
320 K	168.98 ± 0.74 J/K/mol	–
320.37 K	169.11 ± 0.74 J/K/mol	–
323.72 K	169.81 ± 0.74 J/K/mol	–
327.06 K	170.85 ± 0.74 J/K/mol	–
330 K	172.33 ± 0.74 J/K/mol	–
330.4 K	172.47 ± 0.75 J/K/mol	–
333.72 K	173.45 ± 0.75 J/K/mol	–
337.03 K	174.6 ± 0.75 J/K/mol	–
340 K	175.62 ± 0.75 J/K/mol	–
340.34 K	175.73 ± 0.75 J/K/mol	–
343.63 K	176.72 ± 0.75 J/K/mol	–
346.92 K	178.18 ± 0.76 J/K/mol	–
350 K	179.02 ± 0.76 J/K/mol	–
350.2 K	178.96 ± 0.76 J/K/mol	–
353.46 K	180.41 ± 0.76 J/K/mol	–
356.72 K	181 ± 0.76 J/K/mol	–
357.65 K	181.37 ± 0.76 J/K/mol	–
359.97 K	182.49 ± 0.77 J/K/mol	–
360 K	182.5 ± 0.77 J/K/mol	–
360.9 K	182.62 ± 0.77 J/K/mol	–
363.22 K	183.54 ± 0.77 J/K/mol	–
364.15 K	183.8 ± 0.77 J/K/mol	–
366.45 K	185.01 ± 0.77 J/K/mol	–
367.38 K	185.01 ± 0.77 J/K/mol	–
369.68 K	185.57 ± 0.77 J/K/mol	–
370 K	185.85 ± 0.77 J/K/mol	–
370.61 K	186.07 ± 0.77 J/K/mol	–
372.9 K	186.88 ± 0.77 J/K/mol	–
373.83 K	187.15 ± 0.77 J/K/mol	–
376.11 K	187.95 ± 0.78 J/K/mol	–
377.04 K	188.3 ± 0.78 J/K/mol	–
379.31 K	189.23 ± 0.78 J/K/mol	–
380 K	189.36 ± 0.78 J/K/mol	–
380.25 K	189.56 ± 0.78 J/K/mol	–
390 K	192.86 ± 0.79 J/K/mol	–
394.96 K	194.6 ± 0.79 J/K/mol	220.84 ± 0.84 J/K/mol
399 K	–	222.12 ± 0.84 J/K/mol
400 K	–	222.34 ± 0.85 J/K/mol
401.94 K	–	222.86 ± 0.85 J/K/mol
404.87 K	–	223.83 ± 0.85 J/K/mol
407.79 K	–	224.32 ± 0.85 J/K/mol
410 K	–	225.31 ± 0.85 J/K/mol
410.72 K	–	225.87 ± 0.85 J/K/mol
413.63 K	–	226.31 ± 0.85 J/K/mol

— the NIST ThermoML archive (doi:10.1021/je049762q)
